From PubChem BioAssay (NCI) come the findings set out here.

Test systems include MCF7 breast; IGROV1 ovarian; NCI-H226 lung; SF-295 CNS; OVCAR-5 ovarian; UO-31 renal; DU-145 prostate; ACHN renal; HOP-62 NSCLC; SN12C renal.
Holding throughout (assay): DTP human tumour cell line panel, 48 h

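Step 1: Grow cells in 96-well plates. Step 2: Expose to compound for 48 hours at 5 concentrations. Step 3: Interpolate endpoints linearly; if unreached, use highest concentration. Abbreviation: GI50, concentration required for 50% inhibition of growth. TGI is the concentration that stops growth completely.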

By GI50 is commonly meant the concentration giving 50% growth inhibition. What is called TGI is the concentration giving total growth inhibition. A higher TGI goes with less potent growth arrest. For the molecule `O=C(Nc1cccc(Cl)c1Cl)c1cccc(NC2=C(Cl)C(=O)N(Cc3ccccc3)C2=O)c1`, the GI50 with MCF7 breast is 11.3 µM; in the assay with IGROV1 ovarian, 11.7 µM; in the assay on NCI-H226 lung, 31.7 µM; with SF-295 CNS it was 35.7 µM; in the assay on OVCAR-5 ovarian it was 89.5 µM; with UO-31 renal it was 21.1 µM. The GI50 was 21.2 µM in the assay on DU-145 prostate, 54.7 µM in the assay with ACHN renal, above 100 µM in the assay on HOP-62 NSCLC and 30.2 µM in the assay with SN12C renal. Moreover, the TGI in the assay with MCF7 breast is above 100 µM; in the assay on IGROV1 ovarian it was 59.6 µM; in the assay on NCI-H226 lung it was above 100 µM; with SF-295 CNS, above 100 µM; in the assay on OVCAR-5 ovarian, above 100 µM; in the assay with UO-31 renal it was above 100 µM. Besides, the TGI with DU-145 prostate, in the assay on ACHN renal, in the assay on HOP-62 NSCLC and in the assay with SN12C renal was above 100 µM each time.
Take `COc1ccccc1/C=C/c1cnccn1`: the TGI in the assay on MCF7 breast, in the assay with IGROV1 ovarian, in the assay on NCI-H226 lung, with SF-295 CNS, in the assay on OVCAR-5 ovarian and in the assay with UO-31 renal was above 10 µM throughout. The concentration for total growth inhibition (TGI) with DU-145 prostate, with ACHN renal, with HOP-62 NSCLC and in the assay with SN12C renal was above 10 µM throughout.
`Cc1c[n+](Cc2ccc3ccccc3c2)cn1Cc1ccc2ccccc2c1`: the GI50 with MCF7 breast is 1.67 µM; in the assay with IGROV1 ovarian, 1.46 µM; with NCI-H226 lung, 2.12 µM; in the assay on SF-295 CNS, 1.95 µM; in the assay with OVCAR-5 ovarian it was 1.81 µM; with UO-31 renal it was 5.47 µM. In addition, the GI50 in the assay with DU-145 prostate is 2.55 µM; with ACHN renal, 5.41 µM; in the assay with HOP-62 NSCLC it was 1.61 µM; with SN12C renal, 1.67 µM. Moreover, the total growth inhibition concentration (TGI) in the assay on MCF7 breast stood at 3.5 µM; in the assay on IGROV1 ovarian, 3.75 µM; in the assay with NCI-H226 lung it was 5.87 µM; in the assay with SF-295 CNS, 5.56 µM; in the assay with OVCAR-5 ovarian, 3.95 µM; in the assay on UO-31 renal, 20.4 µM. Further, the TGI in the assay with DU-145 prostate was 9.61 µM; in the assay on ACHN renal it was 19.4 µM; with HOP-62 NSCLC, 3.8 µM; in the assay with SN12C renal it was 3.33 µM.
Turning to `O=C(O)c1ccccc1-c1ccccc1C(=O)Nc1ccc2c(c1)Cc1cc(F)ccc1-2`, the TGI with MCF7 breast was 85.5 µM; in the assay on IGROV1 ovarian it was above 100 µM; in the assay on NCI-H226 lung it was above 100 µM; in the assay with SF-295 CNS, 94.2 µM; in the assay on OVCAR-5 ovarian, 88.1 µM; with UO-31 renal, above 100 µM. The total growth inhibition concentration (TGI) in the assay on DU-145 prostate was above 100 µM; with ACHN renal, 64.2 µM; in the assay with HOP-62 NSCLC, 87.4 µM; in the assay with SN12C renal it was 45.5 µM.
Regarding `CCCCCc1c(C)[nH]c(/C=C2\N=C(c3ccc[nH]3)C=C2CC)c1C`, the GI50 in the assay on MCF7 breast is 0.0208 µM; in the assay on IGROV1 ovarian, 0.0268 µM; with NCI-H226 lung, below 0.0131 µM; in the assay on SF-295 CNS, below 0.01 µM; in the assay with OVCAR-5 ovarian it was 0.0179 µM; with UO-31 renal, 0.0134 µM. Moreover, the GI50 with DU-145 prostate was below 0.01 µM; with ACHN renal, 0.0225 µM; in the assay on HOP-62 NSCLC it was 0.0128 µM; with SN12C renal, 0.0169 µM. Besides, the concentration for total growth inhibition (TGI) with MCF7 breast was 0.106 µM; in the assay on IGROV1 ovarian, 0.163 µM; in the assay on NCI-H226 lung it was 0.0452 µM; in the assay with SF-295 CNS, 0.0363 µM; in the assay with OVCAR-5 ovarian, 0.785 µM; in the assay with UO-31 renal, 0.0357 µM. For the same molecule, the TGI with DU-145 prostate amounted to 1.19 µM; with ACHN renal, 0.189 µM; in the assay on HOP-62 NSCLC it was 0.0795 µM; in the assay on SN12C renal, 0.226 µM.
Consider `Fc1ccc(Nc2cc(-n3nnc4ccccc43)nc3ccccc23)cc1`, for which the GI50 with MCF7 breast was 29.8 µM; in the assay on IGROV1 ovarian, 63.9 µM; in the assay with NCI-H226 lung, 19 µM; in the assay on SF-295 CNS, 13.4 µM; with OVCAR-5 ovarian, above 100 µM; in the assay on UO-31 renal, above 55.9 µM. In addition, the GI50 was above 56.2 µM with DU-145 prostate, above 62.6 µM in the assay with ACHN renal, 13.8 µM in the assay with HOP-62 NSCLC and 30 µM with SN12C renal. Moreover, the total growth inhibition concentration (TGI) with MCF7 breast is above 84.4 µM; with IGROV1 ovarian, above 100 µM; with NCI-H226 lung, above 69 µM; in the assay on SF-295 CNS it was 41.5 µM; in the assay with OVCAR-5 ovarian, above 100 µM; in the assay with UO-31 renal, above 100 µM. In addition, the TGI in the assay on DU-145 prostate was above 100 µM; in the assay on ACHN renal, above 100 µM; in the assay on HOP-62 NSCLC it was above 34 µM; in the assay with SN12C renal, above 69.3 µM.
Take `O=C1/C(=C\c2cccn2Cc2ccccc2)c2ccccc2N1c1c(Cl)cccc1Cl`: the GI50 in the assay on MCF7 breast was 0.0898 µM; in the assay on IGROV1 ovarian, 0.551 µM; in the assay on NCI-H226 lung it was 14.9 µM; in the assay on SF-295 CNS, above 100 µM; with OVCAR-5 ovarian it was 4.37 µM; in the assay with UO-31 renal it was 3.89 µM. In addition, the GI50 is above 100 µM in the assay on DU-145 prostate, 7.9 µM in the assay on ACHN renal, above 100 µM in the assay on HOP-62 NSCLC and above 100 µM with SN12C renal. The TGI in the assay with MCF7 breast, in the assay on IGROV1 ovarian, in the assay with NCI-H226 lung, with SF-295 CNS, in the assay on OVCAR-5 ovarian and in the assay on UO-31 renal was above 100 µM throughout. Also, the TGI in the assay on DU-145 prostate, with ACHN renal, in the assay with HOP-62 NSCLC and in the assay with SN12C renal was above 100 µM each time.
As to `Cc1[nH]n(-c2cccc(Cl)c2)c(=O)c1/C=C1\C=Nc2ccc(Br)cc21`, the GI50 is 5.95 µM in the assay on MCF7 breast; 3.04 µM in the assay with IGROV1 ovarian; 5.81 µM with NCI-H226 lung; 3.6 µM in the assay on SF-295 CNS; 3.1 µM in the assay with OVCAR-5 ovarian; 2.08 µM with UO-31 renal. Besides, the GI50 in the assay with DU-145 prostate was 5.71 µM; with ACHN renal, 2.46 µM; in the assay with HOP-62 NSCLC it was 2.33 µM; with SN12C renal, 2.88 µM. The TGI with MCF7 breast was above 100 µM; in the assay with IGROV1 ovarian, 9.34 µM; in the assay on NCI-H226 lung, 28.5 µM; in the assay with SF-295 CNS, 14.2 µM; in the assay on OVCAR-5 ovarian it was 10.2 µM; in the assay with UO-31 renal, 6.57 µM. Also, the total growth inhibition concentration (TGI) with DU-145 prostate is above 100 µM; in the assay on ACHN renal, 5.9 µM; in the assay with HOP-62 NSCLC it was 5.14 µM; with SN12C renal, 11.9 µM.
